{"source": "paper PMC9060532", "about": "(RSC Advances, 2019)", "key": {"[1]": {"test": "Pharmacokinetic study in rats, plasma by HPLC-Ion-Trap-MS/MS", "type": "in vivo, Sprague-Dawley rats"}, "[2]": {"test": "Stability of bornyl caffeate and caffeic acid in rat plasma", "type": "in vitro ADME", "settings": "for Autosampler stability Concentration measured / Autosampler stability Stability (%): processed rat plasma QC, autosampler 20 °C 24 h; for Autosampler stability Concentration measured / Autosampler stability Stability (%) / Short-term Concentration measured / Short-term Stability (%) / Freeze–thaw Concentration measured / Freeze–thaw Stability (%) / Long-term Concentration measured / Long-term Stability (%): n = 6; for Short-term Concentration measured / Short-term Stability (%) / Freeze–thaw Concentration measured / Freeze–thaw Stability (%) / Long-term Concentration measured / Long-term Stability (%): rat plasma; for Short-term Concentration measured / Short-term Stability (%): room temperature 24 h; for Freeze–thaw Concentration measured / Freeze–thaw Stability (%): three freeze–thaw cycles (−20 °C 24 h); for Long-term Concentration measured / Long-term Stability (%): −20 °C 3 weeks"}, "[3]": {"test": "Metabolite identification in rat plasma, urine and feces by HPLC-Q-TOF MS/MS", "type": "in vivo, Sprague-Dawley rats", "settings": "rats, bornyl caffeate ig 30 mg kg^−1; p plasma, u urine, f feces"}, "[4]": {"settings": "CA in rat plasma after CA ig 17 mg kg^−1, n = 6"}, "[5]": {"settings": "Sprague-Dawley, rat, plasma, po, 17 mg/kg"}}}
{"smiles": "O=C(O)/C=C/c1ccc(O)c(O)c1", "note": "[Caffeic acid]", "values": [{"measurement": "T 1/2Ka", "setting": "[1]; [4]", "value": "7.2 ± 1.8", "unit": "min"}, {"measurement": "T 1/2α1", "setting": "[1]; [4]", "value": "24 ± 5.4", "unit": "min"}, {"measurement": "AUC(0-inf)", "setting": "[1]; [5]", "value": "821 ± 86.2", "unit": "ng·h/mL"}, {"measurement": "AUC(0-t)", "setting": "[1]; [5]", "value": "787 ± 80.3", "unit": "ng·h/mL"}, {"measurement": "Cmax", "setting": "[1]; [5]", "value": "450 ± 13.8", "unit": "ng/mL"}, {"measurement": "Tmax", "setting": "[1]; [5]", "value": "15 ± 0.6", "unit": "min"}, {"measurement": "Autosampler stability Concentration measured", "setting": "[2]; 4 ng mL^−1 added", "value": "3.93 ± 0.16", "unit": "ng/mL"}, {"measurement": "Autosampler stability Stability (%)", "setting": "[2]; 4 ng mL^−1 added", "value": 98.25, "unit": "%"}, {"measurement": "Autosampler stability Concentration measured", "setting": "[2]; 200 ng mL^−1 added", "value": "191.9 ± 6.19", "unit": "ng/mL"}, {"measurement": "Autosampler stability Stability (%)", "setting": "[2]; 200 ng mL^−1 added", "value": 95.95, "unit": "%"}, {"measurement": "Autosampler stability Concentration measured", "setting": "[2]; 3000 ng mL^−1 added", "value": "2991.17 ± 12.48", "unit": "ng/mL"}, {"measurement": "Autosampler stability Stability (%)", "setting": "[2]; 3000 ng mL^−1 added", "value": 99.7, "unit": "%"}, {"measurement": "Short-term Concentration measured", "setting": "[2]; 4 ng mL^−1 added", "value": "3.97 ± 0.15", "unit": "ng/mL"}, {"measurement": "Short-term Stability (%)", "setting": "[2]; 4 ng mL^−1 added", "value": 99.38, "unit": "%"}, {"measurement": "Freeze–thaw Concentration measured", "setting": "[2]; 4 ng mL^−1 added", "value": "3.77 ± 0.14", "unit": "ng/mL"}, {"measurement": "Freeze–thaw Stability (%)", "setting": "[2]; 4 ng mL^−1 added", "value": 94.29, "unit": "%"}, {"measurement": "Long-term Concentration measured", "setting": "[2]; 4 ng mL^−1 added", "value": "4.03 ± 0.18", "unit": "ng/mL"}, {"measurement": "Long-term Stability (%)", "setting": "[2]; 4 ng mL^−1 added", "value": 100.79, "unit": "%"}, {"measurement": "Short-term Concentration measured", "setting": "[2]; 200 ng mL^−1 added", "value": "196.41 ± 4.57", "unit": "ng/mL"}, {"measurement": "Short-term Stability (%)", "setting": "[2]; 200 ng mL^−1 added", "value": 98.2, "unit": "%"}, {"measurement": "Freeze–thaw Concentration measured", "setting": "[2]; 200 ng mL^−1 added", "value": "202.1 ± 6.48", "unit": "ng/mL"}, {"measurement": "Freeze–thaw Stability (%)", "setting": "[2]; 200 ng mL^−1 added", "value": 101.05, "unit": "%"}, {"measurement": "Long-term Concentration measured", "setting": "[2]; 200 ng mL^−1 added", "value": "197.22 ± 6.86", "unit": "ng/mL"}, {"measurement": "Long-term Stability (%)", "setting": "[2]; 200 ng mL^−1 added", "value": 98.61, "unit": "%"}, {"measurement": "Short-term Concentration measured", "setting": "[2]; 3000 ng mL^−1 added", "value": "3009.81 ± 6.45", "unit": "ng/mL"}, {"measurement": "Short-term Stability (%)", "setting": "[2]; 3000 ng mL^−1 added", "value": 100.33, "unit": "%"}, {"measurement": "Freeze–thaw Concentration measured", "setting": "[2]; 3000 ng mL^−1 added", "value": "2835.08 ± 9.86", "unit": "ng/mL"}, {"measurement": "Freeze–thaw Stability (%)", "setting": "[2]; 3000 ng mL^−1 added", "value": 94.23, "unit": "%"}, {"measurement": "Long-term Concentration measured", "setting": "[2]; 3000 ng mL^−1 added", "value": "2990.99 ± 4.97", "unit": "ng/mL"}, {"measurement": "Long-term Stability (%)", "setting": "[2]; 3000 ng mL^−1 added", "value": 99.7, "unit": "%"}, {"measurement": "stability in plasma (in words)", "setting": "[2]; room temperature for 24 h, −20 °C for 3 weeks, or autosampler for 24 h", "value": "stable"}]}
{"smiles": "O=C(O)CCc1ccc(O)c(O)c1", "note": "[M4, Dihydrocaffeic acid]", "values": [{"measurement": "Location (samples in which parent or metabolite was detected)", "setting": "[3]", "value": "observed in all the three kinds of samples"}]}
{"smiles": "O=C(O)c1ccccc1", "note": "[M8, Benzoic acid]", "values": [{"measurement": "Location (samples in which parent or metabolite was detected)", "setting": "[3]", "value": "urine and feces"}]}
{"smiles": "COc1cc(CCC(=O)O)ccc1O", "note": "[M9a, Dihydroferulic acid]", "values": [{"measurement": "Location (samples in which parent or metabolite was detected)", "setting": "[3]", "value": "found in rat feces alone"}]}
{"smiles": "COc1ccc(/C=C/C(=O)O)cc1O", "note": "[M14b, Isoferulic acid]", "values": [{"measurement": "Location (samples in which parent or metabolite was detected)", "setting": "[3]", "value": "observed in all the three kinds of samples"}]}
